Measurements reported in publication PMC6713424 (Journal of Medicinal Chemistry, 2019).
“Also recorded” adds a separate entry of the source.

How the values were obtained:
[1] = test system: HSC-2 human oral cancer cells; experiment: MTT cell proliferation assay in HSC-2 cells; type: cell-based; conditions: HSC-2, 1-100 μM, 24, 48 and 72 h
[2] = test system: NNMT activity (MNA production) in HSC-2 cells; experiment: Cellular MNA levels in HSC-2 cells; type: cell-based, human; conditions: HSC-2, 100 μM, 72 h; same effect in DMSO control

NC(=O)c1cccc(CN(CC[C@H](N)C(=O)O)C[C@H]2O[C@@H](n3cnc4c(N)ncnc43)[C@H](O)[C@@H]2O)c1 [Compound 1]
effect on cell proliferation (in words) [1]: not significantly inhibited

Nc1ncnc2c1ncn2[C@@H]1O[C@H](CN(CC[C@H](N)C(=O)O)Cc2ccc3ccccc3c2)[C@@H](O)[C@H]1O [Compound 78, (S)-2-Amino-4-((((2R,3S,4R,5R)-5-(6-amino-9H-purin-9-yl)-3,4-dihydroxytetrahydrofuran-2-yl)methyl)(naphthalen-2-ylmethyl)amino)butanoic Acid]
effect on cell proliferation (in words) [1]: notable decrease in cell proliferation; also recorded: significant inhibitory effect on cell proliferation
cellular MNA production (in words) [2]: increase in cellular MNA production

Nc1ncnc2c1ncn2[C@@H]1O[C@H](CN(CCC[C@H](N)C(=O)O)Cc2ccc3ccccc3c2)[C@@H](O)[C@H]1O [Compound 81, (S)-2-Amino-5-((((2R,3S,4R,5R)-5-(6-amino-9H-purin-9-yl)-3,4-dihydroxytetrahydrofuran-2-yl)methyl)(naphthalen-2-ylmethyl)amino)pentanoic Acid]
effect on cell proliferation (in words) [1]: not significantly inhibited
